Source: ChEMBL document CHEMBL3885861, “Open TG-GATES”

Organism: Rattus norvegicus
Test: Open TG-GATES - Regimen: Single
Assay type: toxicity, organism-based, Sprague-Dawley
Design: regimen Single, gender Male, age 6 weeks
Details: in vivo, po, 15 mg/kg, route gavage, dose level Middle; for APTT / Bas / Eos / Fbg / Hb / Ht / Lym / MCH / MCHC / MCV / Mono / Neu / PT / Plat / RBC / Ret / WBC: tissue Blood; for KIDNEY_L / KIDNEY_R / KIDNEY_TOTAL: tissue Kidney; for LIVER: tissue Liver; for A/G / ALP / ALT / AST / BUN / CRE / Ca / Cl / DBIL / GLC / IP / K / LDH / Na / PL / RALB / TBIL / TC / TG / TP / gamma-GTP: tissue Plasma

CC(=N)S [THIOACETAMIDE]
TERMINAL_BW (3 h): 190.8 g
APTT (3 h): 16.9 s
Bas (3 h): 0%
Eos (3 h): 0.2%
Fbg (3 h): 228 mg/dL
Hb (3 h): 13.2 g/dL
Ht (3 h): 39.8%
Lym (3 h): 82%
MCH (3 h): 21.7 pg
MCHC (3 h): 33.1%
MCV (3 h): 65.4 fL
Mono (3 h): 8%
Neu (3 h): 10%
PT (3 h): 12.4 s
Plat (3 h): 102.8 x10_4/uL
RBC (3 h): 608.5 x10_4/ul
Ret (3 h): 10%
WBC (3 h): 130 x10_2/uL
KIDNEY_L (3 h): 0.9 g
KIDNEY_R (3 h): 0.9 g
KIDNEY_TOTAL (3 h): 1.8 g
LIVER (3 h): 8.9 g
A/G (3 h): 2.4
ALP (3 h): 868.5 IU/L
ALT (3 h): 33.8 IU/L
AST (3 h): 71 IU/L
BUN (3 h): 11.8 mg/dL
CRE (3 h): 0.5 mg/dL
Ca (3 h): 10.9 mg/dL
Cl (3 h): 104.5 meq/L
DBIL (3 h): 0.0025 mg/dL
GLC (3 h): 175.8 mg/dL
IP (3 h): 9.6 mg/dL
K (3 h): 4.4 meq/L
LDH (3 h): 84.2 IU/L
Na (3 h): 138.8 meq/L
PL (3 h): 141.5 mg/dL
RALB (3 h): 4 g/dL
TBIL (3 h): 0.3 mg/dL
TC (3 h): 81.5 mg/dL
TG (3 h): 55 mg/dL
TP (3 h): 5.7 g/dL
gamma-GTP (3 h): 3.2 IU/L
TERMINAL_BW (6 h): 187.8 g
APTT (6 h): 17.2 s
Bas (6 h): 0%
Eos (6 h): 0.6%
Fbg (6 h): 224.8 mg/dL
Hb (6 h): 13.4 g/dL
Ht (6 h): 40.5%
Lym (6 h): 74.6%
MCH (6 h): 21.6 pg
MCHC (6 h): 33.2%
MCV (6 h): 65.1 fL
Mono (6 h): 5.8%
Neu (6 h): 19.4%
PT (6 h): 12.7 s
Plat (6 h): 97.4 x10_4/uL
RBC (6 h): 621.2 x10_4/ul
Ret (6 h): 10%
WBC (6 h): 125.4 x10_2/uL
KIDNEY_L (6 h): 0.9 g
KIDNEY_R (6 h): 0.9 g
KIDNEY_TOTAL (6 h): 1.8 g
LIVER (6 h): 8.4 g
A/G (6 h): 2.1
ALP (6 h): 924.4 IU/L
ALT (6 h): 33 IU/L
AST (6 h): 70.4 IU/L
BUN (6 h): 10.2 mg/dL
CRE (6 h): 0.6 mg/dL
Ca (6 h): 10.5 mg/dL
Cl (6 h): 104 meq/L
DBIL (6 h): 0.022 mg/dL
GLC (6 h): 171.4 mg/dL
IP (6 h): 9.1 mg/dL
K (6 h): 4.9 meq/L
LDH (6 h): 77 IU/L
Na (6 h): 137.2 meq/L
PL (6 h): 142.8 mg/dL
RALB (6 h): 3.7 g/dL
TBIL (6 h): 0.4 mg/dL
TC (6 h): 80 mg/dL
TG (6 h): 73 mg/dL
TP (6 h): 5.4 g/dL
gamma-GTP (6 h): 1 IU/L
TERMINAL_BW (9 h): 183.3 g
APTT (9 h): 17.2 s
Bas (9 h): 0%
Eos (9 h): 0.6%
Fbg (9 h): 226 mg/dL
Hb (9 h): 13.2 g/dL
Ht (9 h): 40.2%
Lym (9 h): 67.2%
MCH (9 h): 21.5 pg
MCHC (9 h): 33%
MCV (9 h): 65.1 fL
Mono (9 h): 8.8%
Neu (9 h): 23.4%
PT (9 h): 13.3 s
Plat (9 h): 107 x10_4/uL
RBC (9 h): 617.4 x10_4/ul
Ret (9 h): 9.1%
WBC (9 h): 126.9 x10_2/uL
KIDNEY_L (9 h): 0.8 g
KIDNEY_R (9 h): 0.8 g
KIDNEY_TOTAL (9 h): 1.7 g
LIVER (9 h): 7.7 g
A/G (9 h): 2.2
ALP (9 h): 887.6 IU/L
ALT (9 h): 31.6 IU/L
AST (9 h): 71.6 IU/L
BUN (9 h): 12.6 mg/dL
CRE (9 h): 0.5 mg/dL
Ca (9 h): 10.2 mg/dL
Cl (9 h): 104.2 meq/L
DBIL (9 h): 0.006 mg/dL
GLC (9 h): 178.2 mg/dL
IP (9 h): 9.8 mg/dL
K (9 h): 4.5 meq/L
LDH (9 h): 93.6 IU/L
Na (9 h): 137.2 meq/L
PL (9 h): 122.6 mg/dL
RALB (9 h): 3.8 g/dL
TBIL (9 h): 0.5 mg/dL
TC (9 h): 71.6 mg/dL
TG (9 h): 40.6 mg/dL
TP (9 h): 5.6 g/dL
gamma-GTP (9 h): 1.4 IU/L
TERMINAL_BW (24 h): 202.6 g
APTT (24 h): 16.4 s
Bas (24 h): 0%
Eos (24 h): 1%
Fbg (24 h): 231.6 mg/dL
Hb (24 h): 13.5 g/dL
Ht (24 h): 40.7%
Lym (24 h): 83.8%
MCH (24 h): 21.9 pg
MCHC (24 h): 33.1%
MCV (24 h): 66.1 fL
Mono (24 h): 6.2%
Neu (24 h): 9%
PT (24 h): 12.8 s
Plat (24 h): 107.7 x10_4/uL
RBC (24 h): 616 x10_4/ul
Ret (24 h): 9.1%
WBC (24 h): 163 x10_2/uL
KIDNEY_L (24 h): 1 g
KIDNEY_R (24 h): 0.9 g
KIDNEY_TOTAL (24 h): 1.9 g
LIVER (24 h): 10.2 g
A/G (24 h): 2
ALP (24 h): 915.6 IU/L
ALT (24 h): 44.4 IU/L
AST (24 h): 71 IU/L
BUN (24 h): 17.2 mg/dL
CRE (24 h): 0.5 mg/dL
Ca (24 h): 10.6 mg/dL
Cl (24 h): 103.8 meq/L
DBIL (24 h): 0.014 mg/dL
GLC (24 h): 179.6 mg/dL
IP (24 h): 7.5 mg/dL
K (24 h): 5.1 meq/L
LDH (24 h): 98.6 IU/L
Na (24 h): 137 meq/L
PL (24 h): 164 mg/dL
RALB (24 h): 3.9 g/dL
TBIL (24 h): 0.3 mg/dL
TC (24 h): 85.2 mg/dL
TG (24 h): 149.8 mg/dL
TP (24 h): 5.8 g/dL
gamma-GTP (24 h): 2.4 IU/L
